# pIC50: −log10 of the molar value. Counter-ions that a name gives are not always drawn.
# Target: T1, human CTPS1 (Homo sapiens, UniProt P17812)
# T1 sequence (P17812 1-591): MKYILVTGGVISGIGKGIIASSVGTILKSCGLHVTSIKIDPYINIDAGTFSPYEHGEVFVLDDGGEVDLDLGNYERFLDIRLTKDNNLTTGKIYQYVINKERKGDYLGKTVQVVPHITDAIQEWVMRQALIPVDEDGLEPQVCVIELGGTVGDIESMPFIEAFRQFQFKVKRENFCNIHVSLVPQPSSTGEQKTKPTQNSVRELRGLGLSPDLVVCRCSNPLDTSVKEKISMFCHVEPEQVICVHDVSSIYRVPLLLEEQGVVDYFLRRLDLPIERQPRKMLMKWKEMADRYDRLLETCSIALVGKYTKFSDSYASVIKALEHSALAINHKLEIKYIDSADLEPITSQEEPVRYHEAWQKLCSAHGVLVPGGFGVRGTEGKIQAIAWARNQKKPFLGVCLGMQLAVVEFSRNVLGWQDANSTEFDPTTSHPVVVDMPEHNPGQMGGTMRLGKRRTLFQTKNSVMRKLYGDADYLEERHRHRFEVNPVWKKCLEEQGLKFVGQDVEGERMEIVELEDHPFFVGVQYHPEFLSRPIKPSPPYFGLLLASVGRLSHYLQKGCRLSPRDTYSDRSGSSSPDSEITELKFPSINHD
# Test: ADP-Glo assay, human CTPS1 enzyme inhibition
# Type: biochemical
# Conditions: wild-type human CTPS1, 25 nM enzyme; ADP-Glo; read-out: ADP-Glo_WT_hCTPS1—25 nM_IC50 (IC50)
# Experimental: The enzyme inhibitory activities of the compounds of the invention against the target of interest were determined using the ADP-Glo™ assay (Promega). Assays for human CTPS1 and CTPS2 were performed in 1× assay buffer containing 50 mM HEPES (Life Technologies), 10 mM Mg2+, 5 mM KCl, 2 mM DTT, 0.01% F-127, pH to 7.4 accordingly. All reagents are from Sigma-Aldrich, unless specified otherwise. Purified human full length active N-terminal FLAG-8×HIS-TEV tagged CTPS1 (UniprotKB—P17812, […]-CTPS1[1-591]) was generated using a mammalian expression system at Viva Biotech (Shanghai) Ltd.
# Purified human CTPS1 protein was prepared in 1× assay buffer to the final working protein concentration required for the reaction. A 2.5 μL volume per well of human CTPS 1 protein was mixed with 0.1 μL per well of test compound dissolved in DMSO and pre-incubated at 25 degrees C. for 10 minutes. 2.5 μL per well of the reaction precursors ATP (UltraPure ATP from ADP-Glo™ kit) and UTP were then added and pre-incubated for an additional 10 minutes at 25 degrees C. Finally, the reaction was initiated by the addition of 5 μL of the reaction precursors L-glutamine and GTP. The final concentration of all reaction components in the assay: ATP (120 μM), UTP (160 μM), GTP (60 μM), L-Glutamine (100 μM), DMSO (1%), hCTPS1 (25 nM). This mixture was incubated for an appropriate amount of time within the determined linear phase of the reaction at 25 degrees C. under sealed plate conditions with constant agitation at 500 revolutions per minute (rpm). ADP-Glo™ reagent was added for 60 minutes (10 μL per well) and subsequently ADP-Glo™ development reagent was added for 60 minutes (20 μL per well) prior to signal detection in a microplate reader (Envision Multilabel Reader, Perkin Elmer). Following each reagent addition over the course of the assay, assay plates were pulse centrifuged for 1 minute at 1000 rpm.
# The enzyme converts ATP to ADP and the ADP-Glo™ reagent subsequently depletes any remaining ATP in the reaction system. The ADP-Glo™ detection reagents converts the ADP that has been produced by the enzyme back into ATP, which is then utilized as a substrate together with luciferin for the enzyme luciferase. Light generated by this chemiluminescent reaction is quantified and is directly proportional to the amount of ADP produced by the CTPS1 enzyme reaction. […]
smiles,measurement,value
"CCOc1cncc(-c2cnc(C(=O)N[C@@H](CN(C)C)c3cccc(NS(=O)(=O)C(F)F)c3)s2)n1 [I-212, (R)-N-(1-(3-((difluoromethyl)sulfonamido)phenyl)-2-(dimethylamino)ethyl)-5-(6-ethoxypyrazin-2-yl)thiazole-2-carboxamide]",pIC50,7.30 to 7.60
"CCOc1cncc(-c2cnc(C(=O)N[C@@H](Cn3nccn3)c3cccc(NS(=O)(=O)C(F)F)c3)s2)n1 [I-217, (R)-N-(1-(3-((difluoromethyl)sulfonamido)phenyl)-2-(2H-1,2,3-triazol-2-yl)ethyl)-5-(6-ethoxypyrazin-2-yl)thiazole-2-carboxamide]",pIC50,7.60 to 8.30
"CCOc1cncc(-c2cnc(C(=O)N[C@H](c3cc(NS(=O)(=O)C4CC4)ccn3)[C@H](C)COC)s2)n1 [I-237, N-((1S,2S)-1-(4-(cyclopropanesulfonamido)pyridin-2-yl)-3-methoxy-2-methylpropyl)-5-(6-ethoxypyrazin-2-yl)thiazole-2-carboxamide]",pIC50,≥ 8.30
"CCOc1cncc(-c2cnc(C(=O)N[C@@H](COC)c3ccnc(NS(=O)(=O)C4CC4)n3)s2)n1 [I-281, (R)-N-(1-(2-(cyclopropanesulfonamido)pyrimidin-4-yl)-2-methoxyethyl)-5-(6-ethoxypyrazin-2-yl)thiazole-2-carboxamide]",pIC50,7.60 to 8.30
"CN(C)C[C@@H](NC(=O)c1ncc(-c2cnn3ccc(Cl)cc23)s1)c1cc(NS(=O)(=O)C2CC2)ccn1 [I-165, (R)-5-(5-chloropyrazolo[1,5-a]pyridin-3-yl)-N-(1-(4-(cyclopropanesulfonamido)pyridin-2-yl)-2-(dimethylamino)ethyl)thiazole-2-carboxamide, formic acid salt]",pIC50,7.60 to 8.30
"CCOc1cncc(-c2cnc(C(=O)N[C@H](c3cc(NS(=O)(=O)C4CC4)ccn3)[C@H]3CC(=O)N(C)C3)s2)n1 [I-120, N-((S)-(4-(cyclopropanesulfonamido)pyridin-2-yl)((S)-1-methyl-5-oxopyrrolidin-3-yl)methyl)-5-(6-ethoxypyrazin-2-yl)thiazole-2-carboxamide]",pIC50,7.30 to 7.60
"CCOc1cncc(-c2cnc(C(=O)N[C@@H](c3cc(NS(=O)(=O)C4CC4)ccn3)[C@@H]3C[C@@H]4CC[C@H]3O4)s2)n1 [I-81, N-((R)-((1R,2S,4S)-7-oxabicyclo[2.2.1]heptan-2-yl)(4-(cyclopropanesulfonamido)pyridin-2-yl)methyl)-5-(6-ethoxypyrazin-2-yl)thiazole-2-carboxamide]",pIC50,≥ 8.30
"CCOc1cncc(-c2cnc(C(=O)NC(c3cc(NS(=O)(=O)C4CC4)ccn3)C3CN(C)CCO3)s2)n1 (single isomer, unassigned) [I-105, N-((4-(cyclopropanesulfonamido)pyridin-2-yl)(4-methylmorpholin-2-yl)methyl)-5-(6-ethoxypyrazin-2-yl)thiazole-2-carboxamide]",pIC50,7.60 to 8.30
"CCOc1cncc(-c2cnc(C(=O)N[C@@H](C[C@H]3COCCN3C)c3cc(NS(=O)(=O)C4CC4)ccn3)s2)n1 [I-102, N-((S)-1-(4-(cyclopropanesulfonamido)pyridin-2-yl)-2-((S)-4-methylmorpholin-3-yl)ethyl)-5-(6-ethoxypyrazin-2-yl)thiazole-2-carboxamide]",pIC50,7.00 to 7.30
"C[C@@H](CN1CCCCC1)[C@H](NC(=O)c1ncc(-c2cnn3ccc(Cl)cc23)s1)c1cc(NS(=O)(=O)C2CC2)ccn1 [I-58, 5-(5-chloropyrazolo[1,5-a]pyridin-3-yl)-N-((1S,2S)-1-(4-(cyclopropanesulfonamido)pyridin-2-yl)-2-methyl-3-(piperidin-1-yl)propyl)thiazole-2-carboxamide]",pIC50,7.00 to 7.30
"CCOc1cncc(-c2cnc(C(=O)N[C@H](c3cccc(NS(=O)(=O)C(F)F)c3)[C@@H](C)CO)s2)n1 [I-243, N-((1S,2R)-1-(3-((difluoromethyl)sulfonamido)phenyl)-3-hydroxy-2-methylpropyl)-5-(6-ethoxypyrazin-2-yl)thiazole-2-carboxamide]",pIC50,7.60 to 8.30
"CCOc1cncc(-c2cnc(C(=O)N[C@@H](c3cc(NS(=O)(=O)C4CC4)ccn3)[C@H]3CCN(CCF)C3)s2)n1 [I-110, N-((R)-(4-(cyclopropanesulfonamido)pyridin-2-yl)((S)-1-(2-fluoroethyl)pyrrolidin-3-yl)methyl)-5-(6-ethoxypyrazin-2-yl)thiazole-2-carboxamide]",pIC50,≥ 8.30
"CCOc1cncc(-c2cnc(C(=O)N[C@@H](c3cc(NS(=O)(=O)C4CC4)ccn3)[C@@H]3CCN(CCF)C3)s2)n1 [I-109, N-((R)-(4-(cyclopropanesulfonamido)pyridin-2-yl)((R)-1-(2-fluoroethyl)pyrrolidin-3-yl)methyl)-5-(6-ethoxypyrazin-2-yl)thiazole-2-carboxamide]",pIC50,7.60 to 8.30
"CCOc1cncc(-c2cnc(C(=O)N[C@@H](c3cccc(NS(=O)(=O)C(F)F)c3)C(C)(C)O)s2)n1 [I-290, (S)-N-(1-(3-((difluoromethyl)sulfonamido)phenyl)-2-hydroxy-2-methylpropyl)-5-(6-ethoxypyrazin-2-yl)thiazole-2-carboxamide]",pIC50,7.60 to 8.30
"CCOc1cncc(-c2cnc(C(=O)N[C@H](COC)c3nccc(NS(=O)(=O)C4CC4)n3)s2)n1 [I-21, (S)-N-(1-(4-(cyclopropanesulfonamido)pyrimidin-2-yl)-2-methoxyethyl)-5-(6-ethoxypyrazin-2-yl)thiazole-2-carboxamide]",pIC50,7.60 to 8.30
"CCOc1cncc(-c2cnc(C(=O)N[C@H](c3cc(NS(=O)(=O)C4CC4)ccn3)[C@H]3CCN(CCF)C3)s2)n1 [I-107, N-((S)-(4-(cyclopropanesulfonamido)pyridin-2-yl)((S)-1-(2-fluoroethyl)pyrrolidin-3-yl)methyl)-5-(6-ethoxypyrazin-2-yl)thiazole-2-carboxamide]",pIC50,7.00 to 7.30
"CCOc1cncc(-c2cnc(C(=O)N[C@H](c3cccc(NS(=O)(=O)C(F)F)c3)[C@H]3COCCO3)s2)n1 [I-198, N-((R)-(3-((difluoromethyl)sulfonamido)phenyl)((S)-1,4-dioxan-2-yl)methyl)-5-(6-ethoxypyrazin-2-yl)thiazole-2-carboxamide]",pIC50,7.60 to 8.30
"CCOc1cncc(-c2cnc(C(=O)N[C@@H](c3cccc(NS(=O)(=O)C(F)F)c3)[C@H](C)CO)s2)n1 [I-245, N-((1R,2S)-1-(3-((difluoromethyl)sulfonamido)phenyl)-3-hydroxy-2-methylpropyl)-5-(6-ethoxypyrazin-2-yl)thiazole-2-carboxamide]",pIC50,≥ 8.30
"CCOc1cncc(-c2cnc(C(=O)N(C)[C@H](c3cc(NS(=O)(=O)C4CC4)ccn3)[C@@H]3CCOC3)s2)n1 [I-64, N-((S)-(4-(cyclopropanesulfonamido)pyridin-2-yl)((S)-tetrahydrofuran-3-yl)methyl)-5-(6-ethoxypyrazin-2-yl)-N-methylthiazole-2-carboxamide]",pIC50,7.00 to 7.30
"CCOc1cncc(-c2cnc(C(=O)N[C@@H](CN3CCN(C4CC4)CC3)c3cc(NS(=O)(=O)C4CC4)ncn3)s2)n1 [I-248, (S)-N-(1-(6-(cyclopropanesulfonamido)pyrimidin-4-yl)-2-(4-cyclopropylpiperazin-1-yl)ethyl)-5-(6-ethoxypyrazin-2-yl)thiazole-2-carboxamide]",pIC50,7.30 to 7.60
"CCOc1cncc(-c2ccc(C(=O)NCc3cc(NS(=O)(=O)C4CC4)ccn3)cc2F)n1 [I-173, N-((4-(cyclopropanesulfonamido)pyridin-2-yl)methyl)-4-(6-ethoxypyrazin-2-yl)-3-fluorobenzamide]",pIC50,7.60 to 8.30
"O=C(N[C@H](c1ccnc(NS(=O)(=O)C2CC2)n1)[C@@H]1CCOC1)c1ncc(-c2cnn3ccc(Cl)cc23)s1 [I-261, 5-(5-chloropyrazolo[1,5-a]pyridin-3-yl)-N-((S)-(2-(cyclopropanesulfonamido)pyrimidin-4-yl)((S)-tetrahydrofuran-3-yl)methyl)thiazole-2-carboxamide]",pIC50,7.60 to 8.30

# From patent US20250270200A1, “CTPS1 INHIBITORS AND USES THEREOF” (Nimbus Clotho, Inc., priority 2022, published 2025)
